According to patent US4962203A, “2-substituted quinolines useful as leukotriene antagonists” (Merck Frost Canada, Inc., priority 1989, dated 1990):
pIC50: −log10 of the molar value.

Columns and labels:
[1] = test system: guinea pig ileum (LTD4 induced contractions); assay: Guinea-pig ileum assay: inhibition of LTD4 induced contractions; set-up: species or system male Hartley strain guinea pigs; settings: for inhibition at 0.001 µg/mL / inhibition at 0.01 µg/mL / inhibition at 0.1 µg/mL / inhibition at 1 µg/mL / inhibition at 10 µg/mL: Cavia porcellus, LTD4 0.3 ng/mL, read-out: % inhibition of LTD4 induced contractions, G.P. ileum assay; for inhibition at 0.001 µg/mL: drug conc. 0.001 μg/mL; for inhibition at 0.01 µg/mL: drug conc. 0.01 μg/mL; for inhibition at 0.1 µg/mL: drug conc. 0.1 μg/mL; for inhibition at 1 µg/mL: drug conc. 1 μg/mL; for inhibition at 10 µg/mL: drug conc. 10 μg/mL; for ability to inhibit LTD4 contractions of the guinea pig ileum, times greater than the reference compound: relative to the reference compound of Table I
Description: Guinea-Pig Ileum Preparation for Evaluation of Antagonists of Leukotriene D4 and Other Mediators
Tissue--Sections of ileum were taken from male Hartley strain guinea pigs (Charles River, U.S.A.) 300 to 500 g which were sacrificed by a blow to the head and exsanguinated. Terminal ileum was removed, cleaned with warm Tyrode's solution and then divided into segments of approximately […]. The segments of ileum were then mounted under 1 g tension in a 20 mL organ bath containing 10 mL of Tyrode's solution with the following composition (mM): NaCl, 137; KCl, 2.7; MgSO4, 7H2 O, 0.8; CaCl2, 1.8; NaH2 PO4, 0.42; NaHCO3, 11.9; Dextrose, 5.6. The bathing solution was continuously aerated with 95% O2 and 5% CO2 and bath temperature was maintained at 37° C. The beta adrenoceptor blocker, timolol (0.5 μg/mL) and the antimuscarinic agent atropine (1.0 μM) were present in the Tyrodeμs solution. Isometric tension changes were recorded using Grass FTO3 force displacement transducers (Grass Instrument G., Quincy, Mass.) connected to a Beckman Type R Dynograph. In order to wash the tissue, the bath solution was automatically aspirated and replaced with a constant volume (10 mL) of fresh solution by means of timer controlled solenoid valves.
After the tissues were stable a standard dose of LTD4 (0.3 ng/mL) was repeatedly added to the bath every 4-5 minutes (min contact, 30 sec wash, 3 min rest) until a consistent response was obtained (minimum of 4 responses). Following each addition of LTD4 the tissue was washed with Tyrode's solution until baseline tension was re-established. After consistent responses were obtained the tissues were used to screen compounds.
Usually, 10 μL of a 10 mg/mL solution of the compound to be tested was added to the bath 30 secs prior to the addition of LTD4. The compound and LTD4 remained in contact with the tissue until the maximum tension was developed (1 min) after which the tissue was washed repeatedly until the baseline was re-established. Percent inhibition relative to the immediately preceding control response was calculated for each dose of test compound. […] Provided the response was inhibited by less than 20%, the tissue was used immediately to evaluate another compound; when the response was inhibited by greater than 20%, cycles of LTD4 alone were added until a consistent response was re-established.

[2] = molecular target: T1, LTD4 binding (Cavia porcellus, UniProt Q2NNR5); assay: LTD4 binding assay; settings: for pIC50: 50% LTD4 bound, unit inferred, read-out: LTD4 binding assay, drug conc. (IC50 values for the numbered examples); for LTD4 binding activity, times greater than the reference compound: relative to the reference compound of Table I
T1 construct: from tissue
T1 sequence (Q2NNR5 1-340): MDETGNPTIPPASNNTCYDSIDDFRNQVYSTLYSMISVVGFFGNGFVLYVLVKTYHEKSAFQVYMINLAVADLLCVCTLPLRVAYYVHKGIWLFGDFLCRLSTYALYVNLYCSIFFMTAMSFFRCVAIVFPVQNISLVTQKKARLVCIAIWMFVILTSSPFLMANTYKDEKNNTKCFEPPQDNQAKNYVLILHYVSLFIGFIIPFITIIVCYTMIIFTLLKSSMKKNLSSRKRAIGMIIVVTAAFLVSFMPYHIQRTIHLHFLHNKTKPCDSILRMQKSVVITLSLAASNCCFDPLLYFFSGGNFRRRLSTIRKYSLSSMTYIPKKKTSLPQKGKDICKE
Description: The results for LTD4 binding were determined by the method of S. S. Pong and R. N. DeHaven, Proc. Nat. Acad. Sci. U.S.A., 80, 7415-7419 (1983).
The drug concentration in the LTD4 binding assay for the numbered examples are the IC50 values. The LTD4 binding activity of these ranges from at least 14 (Ex. 85) to at least 214 (Ex. 71) times greater than the reference compound. The actual differences are even greater since an IC50 was not obtained for the reference compound.

Compound	inhibition at 0.001 µg/mL [1] [%]	inhibition at 0.01 µg/mL [1] [%]	inhibition at 0.1 µg/mL [1] [%]	inhibition at 1 µg/mL [1] [%]	inhibition at 10 µg/mL [1] [%]	pIC50 [2]	% LTD4 bound, LTD4 binding assay ([2]; at the drug conc. (IC50)) [%]	ability to inhibit LTD4 contractions of the guinea pig ileum, times greater than the reference compound [1]	LTD4 binding activity, times greater than the reference compound [2]	% LTD4 bound, LTD4 binding assay ([2]; reference compound, drug conc. 3 × 10^-6 (unit not given)) [%]
CC(Oc1cccc(C#Cc2ccc3ccc(Br)cc3n2)c1)C(=O)O (stereo not drawn)	50	91	94	98	97	7.02	50	–	–	–
CC(Oc1cccc(C2CC2c2ccc3ccc(Cl)cc3n2)c1)c1nn[nH]n1 (stereo not drawn)	–	37	87	96	94	–	50	–	–	–
CC(Oc1cccc(/C=C/c2ccc3ccc(Cl)cc3n2)c1)c1nn[nH]n1 (racemic) [Example 71, 5-(1-(3-(2-(7-chloroquinolin-2-yl)ethenyl)-phenoxy)ethyl)tetrazole]	67	92	100	98	97	7.85	50	over 1000 times	at least 214 times	–
CC(Oc1cccc(/C=C/c2ccc3ccc(Cl)cc3n2)c1)C(=O)O (stereo not drawn)	38	94	95	97	94	–	50	–	–	–
CC(Oc1cccc(Sc2ccc3ccc(Cl)cc3n2)c1)C(=O)O (stereo not drawn) [reference compound]	–	–	–	27	89	–	–	–	–	76
CC(Oc1cccc(OCc2ccc3ccc(Br)cc3n2)c1)C(=O)O (stereo not drawn) [Example 85, 2-(3-(7-bromoquinolin-2-ylmethoxy)phenoxy)propanoic acid]	0	10	57	93	100	6.66	50	about 20 times	at least 14 times	–
